Assay results reported in ChEMBL document CHEMBL3885881, “DrugMatrix”.

Species: Rattus norvegicus
Experiment: DrugMatrix - Regimen: Daily Repeat
Type: toxicity, organism-based, Sprague-Dawley
Design: regimen Daily Repeat, gender Male, age 6-8 weeks
Conditions: in vivo, po, route oral GAVAGE, […]; for ABSOLUTE BASOPHIL / ABSOLUTE EOSINOPHIL / ABSOLUTE LYMPHOCYTE / ABSOLUTE MONOCYTE / ABSOLUTE SEGMENTED NEUTROPHIL / BASOPHIL / EOSINOPHIL / ERYTHROCYTE COUNT / HEMATOCRIT / HEMOGLOBIN / LEUKOCYTE COUNT / LYMPHOCYTE / MEAN CORPUSCULAR HEMOGLOBIN / MEAN CORPUSCULAR HEMOGLOBIN CONCENTRATION / MEAN CORPUSCULAR VOLUME / MONOCYTE / NEUTROPHIL / NUCLEATED RED BLOOD CELLS / PLATELET COUNT: tissue Blood; for ALANINE AMINOTRANSFERASE / ALBUMIN / ALKALINE PHOSPHATASE / ASPARTATE AMINOTRANSFERASE / BLOOD UREA NITROGEN / CARBON DIOXIDE / CHLORIDE / CHOLESTEROL / CREATINE PHOSPHOKINASE / CREATININE / GLUCOSE / LACTATE DEHYDROGENASE / LIPASE / PHOSPHORUS / POTASSIUM / SODIUM / TOTAL BILIRUBIN / TOTAL PROTEIN / URIC ACID: tissue Plasma
[1] = 24 mg/kg, 72 h, dose level Low, time 3 day
[2] = 24 mg/kg, 120 h, dose level Low, time 5 day
[3] = 770 mg/kg, 72 h, dose level High, time 3 day
[4] = 770 mg/kg, 120 h, dose level High, time 5 day

COc1c(N2CCNC(C)C2)c(F)cc2c(=O)c(C(=O)O)cn(C3CC3)c12 (configuration not stated) [GATIFLOXACIN]
ABSOLUTE BASOPHIL [1]: 0 CELLS/uL | ABSOLUTE EOSINOPHIL [1]: 38.67 CELLS/uL | ABSOLUTE LYMPHOCYTE [1]: 12036 CELLS/uL | ABSOLUTE MONOCYTE [1]: 222.67 CELLS/uL | ABSOLUTE SEGMENTED NEUTROPHIL [1]: 769.33 CELLS/uL | BASOPHIL [1]: 0% | EOSINOPHIL [1]: 0.33% | ERYTHROCYTE COUNT [1]: 5.26 x10E6/uL | HEMATOCRIT [1]: 34.07% | HEMOGLOBIN [1]: 13.73 G/DL | LEUKOCYTE COUNT [1]: 13.07 x10E3/uL | LYMPHOCYTE [1]: 92% | MEAN CORPUSCULAR HEMOGLOBIN [1]: 26.17 pg | MEAN CORPUSCULAR HEMOGLOBIN CONCENTRATION [1]: 40.3 G/DL | MEAN CORPUSCULAR VOLUME [1]: 64.87 fL | MONOCYTE [1]: 1.67% | NEUTROPHIL [1]: 6% | NUCLEATED RED BLOOD CELLS [1]: 0 /100WBC | PLATELET COUNT [1]: 1216.33 x10E3/uL | ALANINE AMINOTRANSFERASE [1]: 96.67 u/L | ALBUMIN [1]: 4.1 G/DL | ALKALINE PHOSPHATASE [1]: 435.33 u/L | ASPARTATE AMINOTRANSFERASE [1]: 106.67 u/L | BLOOD UREA NITROGEN [1]: 15 mg/dL | CARBON DIOXIDE [1]: 24.67 mmol/L | CHLORIDE [1]: 100.67 MEQ/L | CHOLESTEROL [1]: 75 mg/dL | CREATINE PHOSPHOKINASE [1]: 818.33 u/L | CREATININE [1]: 0.2 mg/dL | GLUCOSE [1]: 183 mg/dL | LACTATE DEHYDROGENASE [1]: 221.67 u/L | LIPASE [1]: 10.33 u/L | PHOSPHORUS [1]: 13.13 mg/dL | POTASSIUM [1]: 6.33 MEQ/L | SODIUM [1]: 143.27 MEQ/L | TOTAL BILIRUBIN [1]: 0.17 mg/dL | TOTAL PROTEIN [1]: 5.77 G/DL | URIC ACID [1]: 1.7 mg/dL | ABSOLUTE BASOPHIL [2]: 0 CELLS/uL | ABSOLUTE EOSINOPHIL [2]: 0 CELLS/uL | ABSOLUTE LYMPHOCYTE [2]: 16055.67 CELLS/uL | ABSOLUTE MONOCYTE [2]: 361 CELLS/uL | ABSOLUTE SEGMENTED NEUTROPHIL [2]: 1450 CELLS/uL | BASOPHIL [2]: 0% | EOSINOPHIL [2]: 0% | ERYTHROCYTE COUNT [2]: 5.93 x10E6/uL | HEMATOCRIT [2]: 37% | HEMOGLOBIN [2]: 14.63 G/DL | LEUKOCYTE COUNT [2]: 17.87 x10E3/uL | LYMPHOCYTE [2]: 90% | MEAN CORPUSCULAR HEMOGLOBIN [2]: 24.73 pg | MEAN CORPUSCULAR HEMOGLOBIN CONCENTRATION [2]: 39.57 G/DL | MEAN CORPUSCULAR VOLUME [2]: 62.47 fL | MONOCYTE [2]: 2% | NEUTROPHIL [2]: 8% | NUCLEATED RED BLOOD CELLS [2]: 0 /100WBC | PLATELET COUNT [2]: 1096 x10E3/uL | ALANINE AMINOTRANSFERASE [2]: 69 u/L | ALBUMIN [2]: 4.2 G/DL | ALKALINE PHOSPHATASE [2]: 431.33 u/L | ASPARTATE AMINOTRANSFERASE [2]: 90.67 u/L | BLOOD UREA NITROGEN [2]: 13 mg/dL | CARBON DIOXIDE [2]: 27.67 mmol/L | CHLORIDE [2]: 100.67 MEQ/L | CHOLESTEROL [2]: 70.67 mg/dL | CREATINE PHOSPHOKINASE [2]: 342 u/L | CREATININE [2]: 0.2 mg/dL | GLUCOSE [2]: 149.33 mg/dL | LACTATE DEHYDROGENASE [2]: 413 u/L | LIPASE [2]: 10.33 u/L | PHOSPHORUS [2]: 11.8 mg/dL | POTASSIUM [2]: 5.99 MEQ/L | SODIUM [2]: 145.2 MEQ/L | TOTAL BILIRUBIN [2]: 0.2 mg/dL | TOTAL PROTEIN [2]: 5.97 G/DL | URIC ACID [2]: 1.43 mg/dL | ABSOLUTE BASOPHIL [3]: 0 CELLS/uL | ABSOLUTE EOSINOPHIL [3]: 0 CELLS/uL | ABSOLUTE LYMPHOCYTE [3]: 12067.33 CELLS/uL | ABSOLUTE MONOCYTE [3]: 215.33 CELLS/uL | ABSOLUTE SEGMENTED NEUTROPHIL [3]: 450.67 CELLS/uL | BASOPHIL [3]: 0% | EOSINOPHIL [3]: 0% | ERYTHROCYTE COUNT [3]: 6.18 x10E6/uL | HEMATOCRIT [3]: 38.03% | HEMOGLOBIN [3]: 15.1 G/DL | LEUKOCYTE COUNT [3]: 12.73 x10E3/uL | LYMPHOCYTE [3]: 94.67% | MEAN CORPUSCULAR HEMOGLOBIN [3]: 24.5 pg | MEAN CORPUSCULAR HEMOGLOBIN CONCENTRATION [3]: 39.83 G/DL | MEAN CORPUSCULAR VOLUME [3]: 61.5 fL | MONOCYTE [3]: 1.67% | NEUTROPHIL [3]: 3.67% | NUCLEATED RED BLOOD CELLS [3]: 0 /100WBC | PLATELET COUNT [3]: 1233.67 x10E3/uL | ALANINE AMINOTRANSFERASE [3]: 57 u/L | ALBUMIN [3]: 4.07 G/DL | ALKALINE PHOSPHATASE [3]: 327 u/L | ASPARTATE AMINOTRANSFERASE [3]: 64.33 u/L | BLOOD UREA NITROGEN [3]: 11 mg/dL | CARBON DIOXIDE [3]: 24.33 mmol/L | CHLORIDE [3]: 103.67 MEQ/L | CHOLESTEROL [3]: 37 mg/dL | CREATINE PHOSPHOKINASE [3]: 603.67 u/L | CREATININE [3]: 0.29 mg/dL | GLUCOSE [3]: 368.33 mg/dL | LACTATE DEHYDROGENASE [3]: 191.67 u/L | LIPASE [3]: 8.67 u/L | PHOSPHORUS [3]: 12.53 mg/dL | POTASSIUM [3]: 6.44 MEQ/L | SODIUM [3]: 143.43 MEQ/L | TOTAL BILIRUBIN [3]: 0.13 mg/dL | TOTAL PROTEIN [3]: 5.6 G/DL | URIC ACID [3]: 2.13 mg/dL | ABSOLUTE BASOPHIL [4]: 0 CELLS/uL | ABSOLUTE EOSINOPHIL [4]: 57.33 CELLS/uL | ABSOLUTE LYMPHOCYTE [4]: 15898 CELLS/uL | ABSOLUTE MONOCYTE [4]: 55 CELLS/uL | ABSOLUTE SEGMENTED NEUTROPHIL [4]: 1089.67 CELLS/uL | BASOPHIL [4]: 0% | EOSINOPHIL [4]: 0.33% | ERYTHROCYTE COUNT [4]: 6.68 x10E6/uL | HEMATOCRIT [4]: 41.6% | HEMOGLOBIN [4]: 16.5 G/DL | LEUKOCYTE COUNT [4]: 17.1 x10E3/uL | LYMPHOCYTE [4]: 93% | MEAN CORPUSCULAR HEMOGLOBIN [4]: 24.7 pg | MEAN CORPUSCULAR HEMOGLOBIN CONCENTRATION [4]: 39.67 G/DL | MEAN CORPUSCULAR VOLUME [4]: 62.27 fL | MONOCYTE [4]: 0.33% | NEUTROPHIL [4]: 6.33% | NUCLEATED RED BLOOD CELLS [4]: 0 /100WBC | PLATELET COUNT [4]: 1161 x10E3/uL | ALANINE AMINOTRANSFERASE [4]: 71 u/L | ALBUMIN [4]: 4 G/DL | ALKALINE PHOSPHATASE [4]: 300.33 u/L | ASPARTATE AMINOTRANSFERASE [4]: 74.33 u/L | BLOOD UREA NITROGEN [4]: 12.33 mg/dL | CARBON DIOXIDE [4]: 26.67 mmol/L | CHLORIDE [4]: 99.67 MEQ/L | CHOLESTEROL [4]: 30.67 mg/dL | CREATINE PHOSPHOKINASE [4]: 501.33 u/L | CREATININE [4]: 0.29 mg/dL | GLUCOSE [4]: 338.33 mg/dL | LACTATE DEHYDROGENASE [4]: 199 u/L | LIPASE [4]: 8.67 u/L | PHOSPHORUS [4]: 11.53 mg/dL | POTASSIUM [4]: 6.37 MEQ/L | SODIUM [4]: 141.3 MEQ/L | TOTAL BILIRUBIN [4]: 0.2 mg/dL | TOTAL PROTEIN [4]: 5.53 G/DL | URIC ACID [4]: 2.07 mg/dL
